Results from the NIST ThermoML archive (doi:10.1016/j.jct.2004.12.008).

Assay: xn = mol fraction of the nth substance listed
Conditions: 101 kPa, Liquid

O=[N+]([O-])c1ccccc1 [nitrobenzene] + c1ccccc1
Conditions	mass density [kg/m3]
293.15 K, x2 = 0	1202.95
293.15 K, x2 = 0.0532	1187.99
293.15 K, x2 = 0.1189	1169.24
293.15 K, x2 = 0.1842	1150.3
293.15 K, x2 = 0.2479	1131.5
293.15 K, x2 = 0.3012	1115.52
293.15 K, x2 = 0.3581	1098.17
293.15 K, x2 = 0.425	1077.37
293.15 K, x2 = 0.4891	1057.04
293.15 K, x2 = 0.5311	1043.49
293.15 K, x2 = 0.6023	1020.07
293.15 K, x2 = 0.6521	1003.34
293.15 K, x2 = 0.7198	980.14
293.15 K, x2 = 0.7811	958.64
293.15 K, x2 = 0.8534	932.66
293.15 K, x2 = 0.9212	907.66
303.15 K, x2 = 0	1193.56
303.15 K, x2 = 0.0612	1176.18
303.15 K, x2 = 0.1384	1153.92
303.15 K, x2 = 0.1732	1143.76
303.15 K, x2 = 0.2543	1119.7
303.15 K, x2 = 0.3132	1101.89
303.15 K, x2 = 0.3821	1080.7
303.15 K, x2 = 0.4422	1061.84
303.15 K, x2 = 0.4922	1045.9
303.15 K, x2 = 0.5543	1025.75
303.15 K, x2 = 0.6123	1006.56
303.15 K, x2 = 0.6831	982.62
303.15 K, x2 = 0.7534	958.28
303.15 K, x2 = 0.8113	937.78
303.15 K, x2 = 0.8713	916.1
303.15 K, x2 = 0.9378	891.52
313.15 K, x2 = 0	1183.37
313.15 K, x2 = 0.0522	1168.46
313.15 K, x2 = 0.1234	1147.88
313.15 K, x2 = 0.1923	1127.63
313.15 K, x2 = 0.2612	1107.04
313.15 K, x2 = 0.3122	1091.57
313.15 K, x2 = 0.3723	1073.06
313.15 K, x2 = 0.4234	1057.08
313.15 K, x2 = 0.4865	1037.03
313.15 K, x2 = 0.5382	1020.3
313.15 K, x2 = 0.6032	998.9
313.15 K, x2 = 0.6632	978.75
313.15 K, x2 = 0.7219	958.66
313.15 K, x2 = 0.7932	933.72
313.15 K, x2 = 0.8428	916.03
313.15 K, x2 = 0.9247	886.12
323.15 K, x2 = 0	1172.38
323.15 K, x2 = 0.0479	1158.64
323.15 K, x2 = 0.1387	1132.24
323.15 K, x2 = 0.1842	1118.82
323.15 K, x2 = 0.2487	1099.55
323.15 K, x2 = 0.3286	1075.26
323.15 K, x2 = 0.392	1055.64
323.15 K, x2 = 0.435	1042.13
323.15 K, x2 = 0.5023	1020.68
323.15 K, x2 = 0.543	1007.49
323.15 K, x2 = 0.592	991.42
323.15 K, x2 = 0.6633	967.59
323.15 K, x2 = 0.7328	943.85
323.15 K, x2 = 0.7931	922.82
323.15 K, x2 = 0.8538	901.23
323.15 K, x2 = 0.9423	868.96
333.15 K, x2 = 0	1160.59
333.15 K, x2 = 0.0501	1146.17
333.15 K, x2 = 0.1421	1119.35
333.15 K, x2 = 0.1924	1104.47
333.15 K, x2 = 0.2517	1086.72
333.15 K, x2 = 0.3184	1066.47
333.15 K, x2 = 0.3618	1053.11
333.15 K, x2 = 0.4248	1033.47
333.15 K, x2 = 0.4921	1012.12
333.15 K, x2 = 0.5524	992.65
333.15 K, x2 = 0.6013	976.62
333.15 K, x2 = 0.664	955.73
333.15 K, x2 = 0.723	935.71
333.15 K, x2 = 0.7813	915.56
333.15 K, x2 = 0.8342	896.97
333.15 K, x2 = 0.9234	864.89
343.15 K, x2 = 0	1148
343.15 K, x2 = 0.0632	1129.76
343.15 K, x2 = 0.1567	1102.42
343.15 K, x2 = 0.219	1083.91
343.15 K, x2 = 0.2678	1069.26
343.15 K, x2 = 0.3347	1048.9
343.15 K, x2 = 0.3972	1029.6
343.15 K, x2 = 0.4581	1010.51
343.15 K, x2 = 0.5124	993.23
343.15 K, x2 = 0.5639	976.61
343.15 K, x2 = 0.6384	952.15
343.15 K, x2 = 0.7038	930.24
343.15 K, x2 = 0.7598	911.15
343.15 K, x2 = 0.8234	889.07
343.15 K, x2 = 0.8824	868.19
343.15 K, x2 = 0.9423	846.61

C=Cc1ccccc1 [styrene] + O=[N+]([O-])c1ccccc1
Conditions	mass density [kg/m3]
293.15 K, x1 = 0.0536	1185.47
293.15 K, x1 = 0.1324	1160.15
293.15 K, x1 = 0.1909	1141.63
293.15 K, x1 = 0.2564	1121.18
293.15 K, x1 = 0.3257	1099.86
293.15 K, x1 = 0.3986	1077.76
293.15 K, x1 = 0.4576	1060.12
293.15 K, x1 = 0.5243	1040.42
293.15 K, x1 = 0.5888	1021.61
293.15 K, x1 = 0.6424	1006.13
293.15 K, x1 = 0.7156	985.23
293.15 K, x1 = 0.7756	968.27
293.15 K, x1 = 0.8324	952.34
293.15 K, x1 = 0.8755	940.34
293.15 K, x1 = 0.9424	921.83
293.15 K, x1 = 1	906
303.15 K, x1 = 0.0621	1173.19
303.15 K, x1 = 0.1248	1152.93
303.15 K, x1 = 0.1822	1134.64
303.15 K, x1 = 0.2429	1115.56
303.15 K, x1 = 0.3139	1093.59
303.15 K, x1 = 0.3571	1080.39
303.15 K, x1 = 0.4249	1059.93
303.15 K, x1 = 0.4819	1042.96
303.15 K, x1 = 0.5487	1023.33
303.15 K, x1 = 0.5901	1011.29
303.15 K, x1 = 0.6528	993.23
303.15 K, x1 = 0.7289	971.58
303.15 K, x1 = 0.7913	954.03
303.15 K, x1 = 0.8592	935.12
303.15 K, x1 = 0.9368	913.72
303.15 K, x1 = 1	896.44
313.15 K, x1 = 0.0492	1167.15
313.15 K, x1 = 0.1189	1144.52
313.15 K, x1 = 0.1898	1121.9
313.15 K, x1 = 0.2563	1101.03
313.15 K, x1 = 0.3398	1075.31
313.15 K, x1 = 0.4018	1056.54
313.15 K, x1 = 0.4621	1038.54
313.15 K, x1 = 0.5243	1020.21
313.15 K, x1 = 0.5811	1003.69
313.15 K, x1 = 0.6421	986.16
313.15 K, x1 = 0.7132	965.98
313.15 K, x1 = 0.7723	949.39
313.15 K, x1 = 0.8421	930.01
313.15 K, x1 = 0.8942	915.68
313.15 K, x1 = 0.9524	899.79
313.15 K, x1 = 1	886.88
323.15 K, x1 = 0.0598	1152.7
323.15 K, x1 = 0.1329	1129.06
323.15 K, x1 = 0.1942	1109.58
323.15 K, x1 = 0.2458	1093.41
323.15 K, x1 = 0.3239	1069.35
323.15 K, x1 = 0.3891	1049.61
323.15 K, x1 = 0.4314	1036.97
323.15 K, x1 = 0.5028	1015.92
323.15 K, x1 = 0.5622	998.67
323.15 K, x1 = 0.6321	978.64
323.15 K, x1 = 0.6873	963.03
323.15 K, x1 = 0.7419	947.74
323.15 K, x1 = 0.8054	930.15
323.15 K, x1 = 0.8823	909.1
323.15 K, x1 = 0.9339	895.1
323.15 K, x1 = 1	877.32
333.15 K, x1 = 0.0647	1139.39
333.15 K, x1 = 0.1278	1119.07
333.15 K, x1 = 0.1825	1101.73
333.15 K, x1 = 0.2542	1079.38
333.15 K, x1 = 0.3183	1059.76
333.15 K, x1 = 0.3798	1041.24
333.15 K, x1 = 0.4248	1027.86
333.15 K, x1 = 0.4892	1008.97
333.15 K, x1 = 0.5329	996.32
333.15 K, x1 = 0.5892	980.2
333.15 K, x1 = 0.6379	966.41
333.15 K, x1 = 0.7132	945.37
333.15 K, x1 = 0.7987	921.85
333.15 K, x1 = 0.868	903.04
333.15 K, x1 = 0.9468	881.9
333.15 K, x1 = 1	867.76
343.15 K, x1 = 0.0687	1125.66
343.15 K, x1 = 0.1139	1111.2
343.15 K, x1 = 0.1842	1089.06
343.15 K, x1 = 0.2389	1072.13
343.15 K, x1 = 0.3234	1046.47
343.15 K, x1 = 0.3894	1026.81
343.15 K, x1 = 0.4346	1013.54
343.15 K, x1 = 0.4903	997.4
343.15 K, x1 = 0.5538	979.25
343.15 K, x1 = 0.614	962.29
343.15 K, x1 = 0.6622	948.88
343.15 K, x1 = 0.7319	929.71
343.15 K, x1 = 0.7922	913.35
343.15 K, x1 = 0.8531	896.99
343.15 K, x1 = 0.9234	878.32
343.15 K, x1 = 1	858.2
353.15 K, x1 = 0.055	1116.88
353.15 K, x1 = 0.1376	1090.79
353.15 K, x1 = 0.1726	1079.91
353.15 K, x1 = 0.2389	1059.6
353.15 K, x1 = 0.302	1040.61
353.15 K, x1 = 0.3791	1017.85
353.15 K, x1 = 0.4349	1001.66
353.15 K, x1 = 0.5139	979.13
353.15 K, x1 = 0.5628	965.4
353.15 K, x1 = 0.6249	948.19
353.15 K, x1 = 0.6733	934.94
353.15 K, x1 = 0.7234	921.37
353.15 K, x1 = 0.7981	901.38
353.15 K, x1 = 0.8621	884.47
353.15 K, x1 = 0.9412	863.83
353.15 K, x1 = 1	848.64
